Measured values: PubChem BioAssay (NCI)
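In this assay, cells in 96-well plates receive the compound at five concentrations for 48 hours. Endpoints are linearly interpolated between the surrounding concentrations. TGI is the concentration that stops growth completely.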

What was measured:
Assay in all cases: NCI-60 cell line screen, 48 h
HS 578T breast = tested on: HS 578T breast
MDA-MB-435 = tested on: MDA-MB-435
SF-268 CNS = tested on: SF-268 CNS
SW-620 colon = tested on: SW-620 colon
SK-MEL-28 melanoma = tested on: SK-MEL-28 melanoma
HCT-116 colon = tested on: HCT-116 colon
NCI/ADR-RES ovarian = tested on: NCI/ADR-RES ovarian
MDA-MB-231 breast = tested on: MDA-MB-231 breast
LOX IMVI melanoma = tested on: LOX IMVI melanoma
SN12C renal = tested on: SN12C renal
OVCAR-4 ovarian = tested on: OVCAR-4 ovarian
EKVX NSCLC = tested on: EKVX NSCLC
CCRF-CEM leukemia = tested on: CCRF-CEM leukemia
HOP-62 NSCLC = tested on: HOP-62 NSCLC
786-0 renal = tested on: 786-0 renal
NCI-H23 lung = tested on: NCI-H23 lung
BT-549 breast = tested on: BT-549 breast
OVCAR-5 ovarian = tested on: OVCAR-5 ovarian
UACC-257 melanoma = tested on: UACC-257 melanoma
KM12 colon = tested on: KM12 colon
MDA-N = tested on: MDA-N
SR leukemia = tested on: SR leukemia
OVCAR-8 ovarian = tested on: OVCAR-8 ovarian
SNB-75 CNS = tested on: SNB-75 CNS
HCC-2998 colon = tested on: HCC-2998 colon
HCT-15 colon = tested on: HCT-15 colon
OVCAR-3 ovarian = tested on: OVCAR-3 ovarian
SF-295 CNS = tested on: SF-295 CNS
DU-145 prostate = tested on: DU-145 prostate
COLO 205 colon = tested on: COLO 205 colon
RPMI-8226 leukemia = tested on: RPMI-8226 leukemia
HT29 colon = tested on: HT29 colon
UO-31 renal = tested on: UO-31 renal
A498 renal = tested on: A498 renal
M14 melanoma = tested on: M14 melanoma
SF-539 CNS = tested on: SF-539 CNS
SNB-19 CNS = tested on: SNB-19 CNS
MALME-3M melanoma = tested on: MALME-3M melanoma
RXF 393 renal = tested on: RXF 393 renal
HOP-92 NSCLC = tested on: HOP-92 NSCLC
ACHN renal = tested on: ACHN renal
SK-MEL-2 melanoma = tested on: SK-MEL-2 melanoma
UACC-62 melanoma = tested on: UACC-62 melanoma
T-47D breast = tested on: T-47D breast
NCI-H522 lung = tested on: NCI-H522 lung
MOLT-4 leukemia = tested on: MOLT-4 leukemia
K-562 leukemia = tested on: K-562 leukemia
NCI-H226 lung = tested on: NCI-H226 lung
MCF7 breast = tested on: MCF7 breast
SK-MEL-5 melanoma = tested on: SK-MEL-5 melanoma
CAKI-1 renal = tested on: CAKI-1 renal
A549 NSCLC = tested on: A549 NSCLC
PC-3 prostate = tested on: PC-3 prostate
U251 CNS = tested on: U251 CNS
SK-OV-3 ovarian = tested on: SK-OV-3 ovarian
HL-60(TB) leukemia = tested on: HL-60(TB) leukemia
TK-10 renal = tested on: TK-10 renal
IGROV1 ovarian = tested on: IGROV1 ovarian

COC(=O)c1ccc2cc(O)c(O)cc2c1
TGI (HS 578T breast): > 100 µM | TGI (MDA-MB-435): > 100 µM | TGI (SF-268 CNS): > 81.1 µM | TGI (SW-620 colon): > 100 µM | TGI (SK-MEL-28 melanoma): > 100 µM | TGI (HCT-116 colon): > 100 µM | TGI (NCI/ADR-RES ovarian): > 78.2 µM | TGI (MDA-MB-231 breast): > 100 µM | TGI (LOX IMVI melanoma): > 100 µM | TGI (SN12C renal): > 100 µM | TGI (OVCAR-4 ovarian): > 100 µM | TGI (EKVX NSCLC): > 100 µM | TGI (CCRF-CEM leukemia): > 60.4 µM | TGI (HOP-62 NSCLC): > 100 µM | TGI (786-0 renal): > 100 µM | TGI (NCI-H23 lung): > 82 µM | TGI (BT-549 breast): > 90.6 µM | TGI (OVCAR-5 ovarian): > 100 µM | TGI (UACC-257 melanoma): > 96.7 µM | TGI (KM12 colon): > 100 µM | TGI (MDA-N): > 100 µM | TGI (SR leukemia): > 60 µM | TGI (OVCAR-8 ovarian): > 91.3 µM | TGI (SNB-75 CNS): > 100 µM | TGI (HCC-2998 colon): > 100 µM | TGI (HCT-15 colon): > 100 µM | TGI (OVCAR-3 ovarian): > 100 µM | TGI (SF-295 CNS): > 100 µM | TGI (DU-145 prostate): > 100 µM | TGI (COLO 205 colon): > 100 µM | TGI (RPMI-8226 leukemia): > 100 µM | TGI (HT29 colon): > 100 µM | TGI (UO-31 renal): 55.3 µM | TGI (A498 renal): > 100 µM | TGI (M14 melanoma): > 100 µM | TGI (SF-539 CNS): > 100 µM | TGI (SNB-19 CNS): > 100 µM | TGI (MALME-3M melanoma): > 79 µM | TGI (RXF 393 renal): > 100 µM | TGI (HOP-92 NSCLC): > 100 µM | TGI (ACHN renal): > 100 µM | TGI (SK-MEL-2 melanoma): > 100 µM | TGI (UACC-62 melanoma): > 79.3 µM | TGI (T-47D breast): > 100 µM | TGI (NCI-H522 lung): > 64.7 µM | TGI (MOLT-4 leukemia): > 68.8 µM | TGI (K-562 leukemia): > 100 µM | TGI (NCI-H226 lung): > 100 µM | TGI (MCF7 breast): > 100 µM | TGI (SK-MEL-5 melanoma): > 70.2 µM | TGI (CAKI-1 renal): > 100 µM | TGI (A549 NSCLC): > 100 µM | TGI (PC-3 prostate): > 100 µM | TGI (U251 CNS): > 100 µM | TGI (SK-OV-3 ovarian): > 100 µM | TGI (HL-60(TB) leukemia): > 100 µM | TGI (TK-10 renal): > 100 µM | TGI (IGROV1 ovarian): > 100 µM
